Where no end group is shown, it is not given here.

One data set relates to T cells. The settings on record: T helper epitopes of Clerici et al 1989; share of population studied; cited from earlier work.
Turning to HEDIISLWNQSLK [T2], the “% Responding” value is given as 54%.

On to KQIINMWQEVGKAMYA [T1], for which the “% Responding” value is recorded as 77%.

For “TH4: T helper epitope, amino acids 834-848 of gp41 (QGACRAIRHIPRRIR; Transmembrane protein gp41; UniProt P04578 834-848, looked up, fragment)”, the “% Responding” value is recorded as 75%.

The data set is the same for the next values; noted with them: T helper epitopes of Schrier et al 1989; share of population studied; cited from earlier work.
Regarding “gp41-1: T helper epitope, amino acids 603-614 of gp41 (ICTTAVPWNASW; Transmembrane protein gp41; UniProt P04578 603-614, looked up, fragment)”, the “% Responding” value is given as 41%.

For “gp41-2: T helper epitope, amino acids 609-620 of gp41 (PWNASWSNKSLE; Transmembrane protein gp41; UniProt P04578 609-620, looked up, fragment)”, the “% Responding” value is reported as 42%.

Take “gp41-3: T helper epitope, amino acids 655-667 of gp41 (KNEQELLELDKWA; Transmembrane protein gp41; UniProt P04578 655-667, looked up, fragment)”: the “% Responding” value is listed as 38%.

For “gp41-5: T helper epitope, amino acids 737-749 of gp41 (GGERDRDRSIRLV; Transmembrane protein gp41; UniProt P04578 737-749, looked up, fragment)”, the “% Responding” value was 21%.

Regarding “gp41-7: T helper epitope, amino acids 584-609 of gp41 (ERYLKDQQLLGIWGCSGKLICTTAVP; Transmembrane protein gp41; UniProt P04578 584-609, looked up, fragment)”, the “% Responding” value was 24%.

In the case of “gp120-2: T helper epitope, amino acids 115-126 of gp120 (SLKPCVKLTPLC; Envelope glycoprotein gp120; UniProt P04578 115-126, looked up, fragment)”, the “% Responding” value is 38%.

For “gp120-5: T helper epitope, amino acids 368-377 of gp120 (DPEIVTHSFN; Envelope glycoprotein gp120; UniProt P04578 368-377, looked up, fragment)”, the “% Responding” value is listed as 21%.

As to “pol-1: T helper epitope, amino acids 899-913 of pol”, the “% Responding” value is 28%.

On to “pol-2: T helper epitope, amino acids 923-937 of pol”, for which the “% Responding” value is on record as 38%.

As for “pol-3: T helper epitope, amino acids 942-954 of pol”, the “% Responding” value is on record as 48%.

On to “pol-4: T helper epitope, amino acids 720-730 of pol (PSINNETPGIR; UniProt P04585 720-730, looked up, fragment)”, for which the “% Responding” value is recorded as 35%.

The next data set deals with Normal Human Peripheral Blood Lymphocytes.
Settings: not given
Consider “CTRPNNNTRKSIRIQRGPG [SP-10, CTRPNNNTRKSIRIQRGPG]”, for which the “Inhibition of normal T cell response to tetanus toxoid” value was “no inhibition of normal T cell response to tetanus toxoid was observed”.
